From PubChem BioAssay (NCI)
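96-well plates; 48 h exposure; 5 concentrations. Endpoints by linear interpolation between flanking doses. Not reached: highest tested concentration assigned. GI50 = concentration required for 50% inhibition of growth. The concentration for full growth arrest is given as TGI.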

Columns and labels:
Assay in all cases: DTP human tumour cell line panel, 48 h
[1] = test system: 786-0 renal
[2] = test system: A549 NSCLC
[3] = test system: COLO 205 colon
[4] = test system: HOP-62 NSCLC
[5] = test system: IGROV1 ovarian
[6] = test system: M14 melanoma
[7] = test system: OVCAR-5 ovarian
[8] = test system: RXF 393 renal
[9] = test system: UO-31 renal
[10] = test system: HL-60(TB) leukemia

| SMILES | GI50 [1] | TGI [1] | GI50 [2] | TGI [2] | GI50 [3] | TGI [3] | GI50 [4] | TGI [4] | GI50 [5] | TGI [5] | GI50 [6] | TGI [6] | GI50 [7] | TGI [7] | GI50 [8] | TGI [8] | GI50 [9] | TGI [9] | GI50 [10] | TGI [10] |
| --- | --- | --- | --- | --- | --- | --- | --- | --- | --- | --- | --- | --- | --- | --- | --- | --- | --- | --- | --- | --- |
| CCOC(=O)/C(C#N)=C\C=C(/Cl)c1ccc(Cl)cc1 | 19.4 µM | 37.4 µM | 30.4 µM | 90.4 µM | 19.1 µM | > 48 µM | 17.5 µM | 35.2 µM | 5.78 µM | 27.1 µM | 14.8 µM | 31.4 µM | 29.7 µM | 59.4 µM | 21.6 µM | 45.9 µM | 18 µM | 35.4 µM | – | – |
| C[C@H]1CCCC(O)C(O)[C@@H]2C[C@H](O[Si](C)(C)C(C)(C)C)C[C@H]2[C@H](O[Si](C)(C)C(C)(C)C)C(O)C(O)C(=O)O1 (stereo partly specified) | 10.6 µM | 22.3 µM | 31.5 µM | > 100 µM | > 100 µM | > 100 µM | 11 µM | 27.6 µM | 16.2 µM | 43 µM | 39.1 µM | > 100 µM | 31.8 µM | > 100 µM | 31.8 µM | > 100 µM | 42.2 µM | > 100 µM | – | – |
| Cn1cc(C2=C(c3cn(C4CCN(Cc5ccccn5)CC4)c4ccccc34)C(=O)NC2=O)c2ccccc21 | 8.43 µM | > 91.1 µM | 4.92 µM | > 100 µM | 3.08 µM | > 100 µM | 12.1 µM | 54.9 µM | 9.7 µM | > 100 µM | 4.61 µM | > 100 µM | > 100 µM | > 100 µM | 2.59 µM | 25.3 µM | – | – | 3.97 µM | > 100 µM |
| O=C1CCCCN1CCCCC#Cc1cccc(C#Cc2cccnc2)c1 | 13 µM | 27.8 µM | 18.4 µM | 60.6 µM | 6.88 µM | 21 µM | 15.2 µM | 31.4 µM | 14.7 µM | 43.1 µM | 14.3 µM | 34.7 µM | 17.7 µM | 41.7 µM | – | – | 5.97 µM | 23 µM | 16.2 µM | 70 µM |
| CCCCCCCCCCCCCCCC[N+]1(C)CCOCC1 | 1.52 µM | 2.99 µM | 2.79 µM | 12.2 µM | 1.15 µM | 2.42 µM | 1.34 µM | 3.15 µM | – | – | 1.32 µM | 2.98 µM | 1.14 µM | 2.89 µM | – | – | 13.4 µM | 31.6 µM | 1.31 µM | 3.35 µM |
| CCNC(=O)COc1ccc(Cl)cc1Cl | – | > 100 µM | – | > 100 µM | – | > 100 µM | – | > 100 µM | – | > 100 µM | – | > 100 µM | – | > 100 µM | – | – | – | > 100 µM | – | > 100 µM |
| CN(C)C(=S)/N=c1\ssc(=S)n1Cc1ccncc1 | – | 66 µM | – | > 100 µM | – | > 100 µM | – | 92.2 µM | – | 63.3 µM | – | 62.9 µM | – | > 100 µM | – | 70 µM | – | 88.5 µM | – | – |
| COC(=O)C1(C(=O)OC)CC(=O)c2cc3c(cc2-c2c(cc(OC)c(OC)c2OC)C1)OCO3 | – | > 211 µM | – | > 211 µM | – | > 211 µM | – | > 211 µM | – | > 211 µM | – | – | – | > 211 µM | – | > 211 µM | – | – | – | > 211 µM |
| CC(=O)N1CCC2(c3ccccc3N(C(C)=O)C2c2ccc(O)cc2)C1C(=O)O (stereo unspecified) | – | > 100 µM | – | > 100 µM | – | > 100 µM | – | > 100 µM | – | – | – | > 100 µM | – | > 100 µM | – | > 100 µM | – | > 100 µM | – | > 100 µM |
| CCOC(=O)C1SC(=Nc2ccc(Cl)cc2)N=C1C (stereo unspecified) | – | 30.7 µM | – | 38.1 µM | – | 32.8 µM | – | 36.2 µM | – | 40 µM | – | – | – | 39.3 µM | – | 36.3 µM | – | 33.7 µM | – | 55.9 µM |
| CCOC(=O)NC(=O)c1cn(CCN2CCN(C(=O)CCCCCCCCCCC(=O)N3CCN(CCn4cc(C(=O)NC(=O)OCC)c(=O)[nH]c4=O)CC3)CC2)c(=O)[nH]c1=O | – | > 100 µM | – | > 100 µM | – | > 100 µM | – | > 100 µM | – | > 100 µM | – | > 100 µM | – | > 100 µM | – | – | – | > 100 µM | – | – |
| c1ccc2[nH]c(-c3ccc(Nc4nc(N5CCCCC5)nc(N5CCOCC5)n4)cc3)nc2c1 | 1.54 µM | 3.21 µM | 3.27 µM | 13.2 µM | 1.86 µM | 3.92 µM | 1.92 µM | 4.32 µM | – | – | 2.05 µM | 4.72 µM | 4.06 µM | 29.3 µM | 0.808 µM | 3.28 µM | 2 µM | 5.14 µM | 2.42 µM | 5.8 µM |
| O=c1cc(/C=C/c2ccccc2)[nH]c2cc3c(cc12)OCO3 | – | 12.7 µM | – | 21.4 µM | – | 6.43 µM | – | 14.5 µM | – | 19.8 µM | – | 17.1 µM | – | 14.2 µM | 4.27 µM | 22 µM | – | 20.9 µM | – | – |
| Cc1ccccc1C(=O)N1CCN(C(=O)c2ccccc2C)CC1 | – | > 100 µM | – | > 100 µM | – | – | – | > 100 µM | – | > 100 µM | – | > 100 µM | – | > 100 µM | – | > 100 µM | – | > 100 µM | – | > 100 µM |
| CC(NC(=O)N(C)C)NC(=O)N(C)C | – | > 10 µM | – | > 10 µM | – | > 10 µM | – | > 10 µM | – | > 10 µM | – | > 10 µM | – | – | – | > 10 µM | – | > 10 µM | – | > 10 µM |
| COC(=O)C1(O)CC(=O)CCC1c1ccc(OC)cc1 (stereo unspecified) | – | > 100 µM | – | > 100 µM | – | > 100 µM | – | > 100 µM | – | > 100 µM | – | > 100 µM | – | > 100 µM | – | – | – | > 100 µM | – | > 100 µM |
| C[N+](C)(C)CC1CCCCC1O (stereo unspecified) | – | > 100 µM | – | – | – | > 100 µM | – | > 100 µM | – | > 100 µM | – | > 100 µM | – | > 100 µM | – | > 100 µM | – | > 100 µM | – | – |
| Cc1ccc(NC(=O)c2cc(S(=O)(=O)N3C(=O)NC(=O)NS3(=O)=O)c(S)cc2Cl)cc1 | 40.4 µM | > 100 µM | 35.1 µM | > 100 µM | 39.8 µM | > 100 µM | 33.9 µM | > 100 µM | 26.1 µM | 90.4 µM | 24.6 µM | 66.8 µM | 56.5 µM | > 100 µM | 11.5 µM | 54.5 µM | 27.8 µM | > 100 µM | – | – |
